In patent US10377770B2 (Novartis AG, priority 2015, dated 2019):

What follows are compounds tested against C-Raf FL (full length CRAF with Y340E and Y341E activating mutations, co-expressed with h14-3-3 zeta) (Homo sapiens (Human), UniProt P04049, Y340E/Y341E) (assay: In vitro Raf activity determination, AlphaScreen p-MEK readout, c-Raf (C-Raf FL)). Conditions: c-Raf approximately 4 nM, ATP 1 μM, pre-incubation 60 minutes, reaction 1 hour.
Type: biochemical
Procedure, shortened: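 Phosphorylation of kinase-dead biotinylated MEK1 (~10 nM) by C-Raf FL (~4 nM) read by AlphaScreen luminescence with anti-phospho-MEK1/2 after EDTA stop. ATP was 1 μM, with a 1 h reaction at room temperature. Compounds were pre-incubated with enzyme and substrate for 60 min in Tris/MgCl2 buffer, pH 7.5.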

C-Raf FL (full length CRAF with Y340E and Y341E activating mutations, co-expressed with h14-3-3 zeta), sequence (P04049 whole entry Y340E/Y341E): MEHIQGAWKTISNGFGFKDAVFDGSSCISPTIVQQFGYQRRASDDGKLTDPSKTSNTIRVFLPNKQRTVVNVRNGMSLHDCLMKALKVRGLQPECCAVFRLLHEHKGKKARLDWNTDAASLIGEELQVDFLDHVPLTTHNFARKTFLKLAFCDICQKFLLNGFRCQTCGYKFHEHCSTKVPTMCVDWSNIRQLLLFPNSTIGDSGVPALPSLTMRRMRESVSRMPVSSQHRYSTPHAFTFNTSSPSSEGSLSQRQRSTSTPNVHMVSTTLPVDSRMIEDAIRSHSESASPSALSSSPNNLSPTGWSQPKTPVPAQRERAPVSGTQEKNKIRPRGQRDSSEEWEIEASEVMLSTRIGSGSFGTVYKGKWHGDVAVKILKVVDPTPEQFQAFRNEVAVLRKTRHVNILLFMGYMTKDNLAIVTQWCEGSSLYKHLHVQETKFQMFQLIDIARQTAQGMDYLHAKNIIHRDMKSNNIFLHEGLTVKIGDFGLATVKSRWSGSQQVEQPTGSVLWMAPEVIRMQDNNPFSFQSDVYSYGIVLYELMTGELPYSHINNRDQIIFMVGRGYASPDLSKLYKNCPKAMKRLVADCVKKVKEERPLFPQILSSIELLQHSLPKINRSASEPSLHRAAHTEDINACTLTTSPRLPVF
C-Raf FL (full length CRAF with Y340E and Y341E activating mutations, co-expressed with h14-3-3 zeta), sequence (P63104 whole entry partner): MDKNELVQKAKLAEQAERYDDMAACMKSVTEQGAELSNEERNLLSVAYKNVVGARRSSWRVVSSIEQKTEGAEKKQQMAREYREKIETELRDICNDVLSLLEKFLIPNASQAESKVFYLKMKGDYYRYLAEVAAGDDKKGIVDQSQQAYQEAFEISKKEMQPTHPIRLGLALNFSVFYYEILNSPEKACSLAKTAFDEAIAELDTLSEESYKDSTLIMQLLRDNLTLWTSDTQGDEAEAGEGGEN

Point of comparison: Cc1ccc(NC(=O)c2ccnc(C(F)(F)F)c2)cc1-c1cnc2c(c1)N1CCOCC1CC2(F)F (racemic) [Example 111, rac-N-(3-(6,6-Difluoro-1,2,4,4a,5,6-hexahydro-[1,4]oxazino[4,3-a][1,5]naphthyridin-9-yl)-4-methylphenyl)-2-(trifluoromethyl)isonicotinamide], IC50 0.0054 nM. Against it:
- COC1CC2COCCN2c2cc(-c3cc(NC(=O)c4ccnc(C(F)(F)F)c4)ccc3C)cnc21 (racemic) [Example 34] — 1.6-fold higher, 0.0087 nM
- Cc1ccc(NC(=O)c2ccnc(C(C)(F)F)c2)cc1-c1cnc2c(c1)N1CCOC[C@H]1C(F)(F)[C@@H]2O (racemic) [Example 163, rac-cis-N-(3-(5,5-difluoro-6-hydroxy-1,2,4,4a,5,6-hexahydro-[1,4]oxazino[4,3-a][1,5]naphthyridin-9-yl)-4-methylphenyl)-2-(1,1-difluoroethyl)isonicotinamide] — 3.7-fold higher, 0.02 nM
- Cc1ccc(NC(=O)c2ccnc(C(C)(C)F)c2)cc1-c1ccc2c(c1)N1CCOC[C@@H]1[C@](F)(CO)C2 [Example 400, N-(3-((4aR,5S)-5-fluoro-5-(hydroxymethyl)-1,2,4,4a,5,6-hexahydro-[1,4]oxazino[4,3-a]quinolin-9-yl)-4-methylphenyl)-2-(2-fluoropropan-2-yl)isonicotinamide] — 19-fold higher, 0.1 nM
- CCN1C(=O)[C@H]2[C@@H]3COC[C@@H]3[C@H]2c2cc(-c3cc(NC(=O)c4cncc(C(F)(F)F)c4)ccc3C)cnc21 [Example 277, N-(3-((6aR, 6bR, 9aR, 9bR)-5-ethyl-6-oxo-5,6,6a,6b,7,9,9a,9b-octahydrofuro[3′,4′: 3,4]cyclobuta[1,2-c][1,8]naphthyridin-2-yl)-4-methylphenyl)-5-(trifluoromethyl) nicotinamide] — 19-fold higher, 0.1 nM
- Cc1ccc(NC(=O)c2ccnc(C(C)(F)F)c2)cc1-c1cnc2c(c1)N1CCOC[C@@H]1[C@@](C#N)(CF)C2 [Example 517, N-(3-((4aS,5S)-5-cyano-5-(fluoromethyl)-1,2,4,4a,5,6-hexahydro-[1,4]oxazino[4,3-a][1,5]naphthyridin-9-yl)-4-methyphenyl)-2-(1,1-difluoroethyl)iso-nicotinamide] — 19-fold higher, 0.1 nM
- CCN1C(=O)C(C)(C)c2nncn2-c2cc(-c3cc(NC(=O)c4cccc(C(F)(F)F)c4)cnc3C)cnc21 [Example 240, N-(5-(6-ethyl-4,4-dimethyl-5-oxo-5,6-dihydro-4H-pyrido[2,3-b][1,2,4]triazolo[4,3-d][1,4]diazepin-9-yl)-6-methylpyridin-3-yl)-3-(trifluoromethyl) benzamide] — 2000-fold higher, 10.6 nM
- CNC(=O)C1Cc2ccc(-c3cc(NC(=O)c4ccnc(C(C)(F)F)c4)ccc3C)cc2N2CCOCC12 (racemic) [Example 67, (rac)-9-(5-(2-(1,1-difluoroethyl)isonicotinamido)-2-methylphenyl)-N-methyl-1,2,4,4a,5,6-hexahydro-[1,4]oxazino[4,3-a]quinoline-5-carboxamide] — 24-fold higher, 0.13 nM
- Cc1ccc(NC(=O)c2ccnc(C(C)(F)F)c2)cc1-c1cnc2c(c1)N1CCOC[C@H]1C[C@]2(C)O (racemic) [Example 42, (rac)-(cis)-2-(1,1-difluoroethyl)-N-(3-(6-hydroxy-6-methyl-1,2,4,4a,5,6-hexahydro-[1,4]oxazino[4,3-a][1,5]naphthyridin-9-yl)-4-methylphenyl)isonicotinamide] — 2.8-fold higher, 0.015 nM
- CCNC(=O)C1Cc2ccc(-c3cc(NC(=O)c4ccnc(C(F)(F)F)c4)ccc3C)cc2N2CCOCC12 (racemic) [Example 73, (rac)-N-ethyl-9-(2-methyl-5-(2-(trifluoromethyl)isonicotinamido)phenyl)-1,2,4,4a,5,6-hexahydro-[1,4]oxazino[4,3-a]quinoline-5-carboxamide] — 37-fold higher, 0.2 nM
- Cc1ccc(NC(=O)c2ccnc(C(C)(F)F)c2)cc1-c1ccc2c(c1)N1CCOCC1CC2(C)O (racemic) [Example 23] — 8.5-fold higher, 0.046 nM
- CCN1C(=O)C2CCOCCC2c2cc(-c3cc(NC(=O)c4ccnc(C(F)(F)F)c4)ccc3C)cnc21 (stereo not drawn) [Example 246, N-(3-((5a, 11b-cis)-7-ethyl-6-oxo-1,2,4,5,5a,6,7,11b-octahydrooxepino [4,5-c][1,8]naphthyridin-10-yl)-4-methylphenyl)-2-(trifluoromethyl) isonicotinamide] — 37-fold higher, 0.2 nM
- Cc1ccc(NC(=O)c2cncc(C(F)(F)F)c2)cc1-c1cc(F)c2c(c1)N1CCOC[C@@H]1[C@](F)(CO)C2 [Example 440, N-(3-((4aR,5S)-5,7-difluoro-5-(hydroxymethyl)-1,2,4,4a,5,6-hexahydro-[1,4]oxazino[4,3-a]quinolin-9-yl)-4-methylphenyl)-5-(trifluoromethyl) nicotinamide] — 56-fold higher, 0.3 nM
- Cc1ccc(NC(=O)c2ccnc(C(C)(C)F)c2)cc1-c1cc2c(cc1F)C[C@](F)(CO)[C@H]1COCCN21 [Example 478, N-(3-((4aR,5R)-5,8-difluoro-5-(hydroxymethyl)-1,2,4,4a,5,6-hexahydro-[1,4]oxazino[4,3-a]quinolin-9-yl)-4-methylphenyl)-2-(2-fluoropropan-2-yl)isonicotinamide] — 37-fold higher, 0.2 nM
- CC[C@@H]1Oc2nnc(-c3cc(NC(=O)c4ccnc(C(C)(F)F)c4)ccc3C)cc2N2CCOC[C@H]12 [Example 532, 2-(1,1-Difluoroethyl)-N-(3-((6S,6aR)-6-ethyl-6a,7,9,10-tetrahydro-6H-[1,4]oxazino[4,3-d]pyridazino[3,4-b][1,4]oxazin-2-yl)-4-methylphenyl)isonicotinamide] — 37-fold higher, 0.2 nM
- Cc1ncc(NC(=O)c2ccnc(C(C)(F)F)c2)cc1-c1ccc2c(c1)N1CCOC[C@H]1[C@H](C#N)C2 (racemic) [Example 91, (rac)-N-(5-(5-cyano-1,2,4,4a,5,6-hexahydro-[1,4]oxazino[4,3-a]quinolin-9-yl)-6-methylpyridin-3-yl)-2-(1,1-difluoroethyl)isonicotinamide] — 14-fold higher, 0.076 nM
- CCN1C[C@H]2CCOCCN2c2cc(-c3cc(NC(=O)c4ccnc(C(F)(F)F)c4)ccc3C)cnc2C1=O [Example 505, (R)-N-(3-(7-ethyl-8-oxo-1,2,4,5,5a,6,7,8-octahydropyrido[2′, 3′:6,7][1,4]diazepino [1,2-d][1,4]oxazepin-11-yl)-4-methylphenyl)-2-(trifluoromethyl)iso-nicotinamide] — 670-fold higher, 3.6 nM
- Cc1ccc(NC(=O)c2ccnc(C(C)(F)F)c2)cc1-c1cnc2c(c1)C1CCOCC1OC(=O)N2CCO (stereo not drawn) [Example 332, 2-(1,1-difluoroethyl)-N-(3-((4,11b-cis)-7-(2-hydroxyethyl)-6-oxo-2,4,4a,6,7,11b-hexahydro-1H-pyrano[4,3-f]pyrido[2,3-d][1,3]oxazepin-10-yl)-4-methylphenyl) isonicotinamide] — 390-fold higher, 2.1 nM
- CCN1C(=O)C2CCOCCC2c2cc(-c3cc(NC(=O)c4ccnc(C(F)(F)F)c4)ccc3C)cnc21 (stereo not drawn) [Example 249, N-(3-((5a, 11b- trans)-7-ethyl-6-oxo-1,2,4,5,5a,6,7,11boctahydrooxepino [4,5-c][1,8]naphthyridin-4,5-10-yl)-4-methylphenyl)-2-(trifluoromethyl) isonicotinamide] — 19-fold higher, 0.1 nM
- CO[C@@H]1C[C@@H]2COCCN2c2cc(-c3cc(NC(=O)c4cccc(C(F)(F)F)c4)cnc3C)ccc21 (racemic) [Example 32, (rac)-(trans)-N-(5-(6-methoxy-1,2,4,4a,5,6-hexahydro-[1,4]oxazino[4,3-a]quinolin-9-yl)-6-methylpyridin-3-yl)-3-(trifluoromethyl)benzamide] — 4.3-fold higher, 0.023 nM
